Consider eleven compounds from ChEMBL document CHEMBL1201862, “PubChem BioAssay data set” (2004).

What all share (experiment): NCI anticancer screen, dose series, 48 h
For assay [1], the system named is SNB-19.
The test system of assay [2] is K562.
The test system of assay [3] is ACHN.
Assay [4] deals with OVCAR-5.
Assay [5] deals with HOP-62.
Assay [6] concerns SN12C.
Assay [7] concerns A549.
Assay [8] concerns DU-145.
Assay [9] concerns COLO 205.
The subject of assay [10] is UACC-257.
Assay [11] deals with HCT-15.
In assay [12] the test system is MDA-MB-435.
Assay [13] deals with MCF7.
Assay [14] has as its system MDA-MB-231.
Assay [15] deals with SR.
Assay [16] concerns Malme-3M.
For assay [17], the system named is MDA-N.
The subject of assay [18] is SW-620.
Assay [19] has as its system HL-60.
In assay [20] the test system is EKVX.

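1) Cells in 96-well plates. 2) Compound, 48 h, 5 concentrations. 3) Linear interpolation between surrounding doses. 4) Unreached endpoint = highest concentration. GI50 marks 50% less growth.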 Activity calls are given as the source filed them. Rule as the data show it: active = GI50 up to about 1.1 µM and inactive = higher. Residues, ends and D or L forms follow the SMILES beside them. *: point of attachment. Pentanoyl = CCCCC(=O)*; Boc = CC(C)(C)OC(=O)*

As to `COC(=O)n1c(=O)nc2c3c(ncn21)Oc1c(c(-c2ccccc2)nn1-c1ccccc1)C3c1ccc(Cl)cc1` (stereo not drawn), the GI50 in [1] was 1.75 µM (inactive); in [2], 1.62 µM (inactive); in assay [3], 1.82 µM (inactive); in assay [4], 1.32 µM (inactive); in [5], 1.72 µM (inactive); in assay [6] it was 1.73 µM (inactive). Moreover, the GI50 in assay [7] is 1.77 µM (inactive); in assay [8], 1.63 µM (inactive); in assay [9], 1.45 µM (inactive); in assay [10], 1.89 µM (inactive); in assay [11] it was 1.6 µM; in [12] it was 1.66 µM (inactive). Besides, the GI50 in assay [13] is 1.69 µM (inactive); in assay [14], 1.67 µM (inactive); in [15], 1.82 µM (inactive); in assay [16], 1.04 µM (active); in assay [17], 1.66 µM (inactive); in assay [18], 1.69 µM (inactive). For the same compound, the GI50 in [19] is 1.51 µM (inactive).

As for `N#Cc1cc(-c2nc3c(F)cccc3s2)ccc1N`, the GI50 in assay [1], in assay [2], in assay [3], in assay [4], in assay [5] and in assay [6] was > 100 µM (inactive) in each case. Further, the GI50 in assay [7] is > 100 µM (inactive); in [8] it was > 100 µM (inactive); in assay [9] it was 71.4 µM (inactive); in assay [10], > 100 µM (inactive); in assay [11], above 100 µM; in assay [12], 45.5 µM (inactive). Moreover, the GI50 in [13] is 0.133 µM (active); in assay [14] it was > 100 µM (inactive); in assay [16], 88.9 µM (inactive); in assay [17] it was 47.8 µM (inactive); in assay [18], > 100 µM (inactive); in assay [20], < 0.01 µM (active). Also, in assay [19], the GI50 was > 100 µM (inactive).

In the case of `CCCCC(=O)Oc1ccc(CC(NC(=O)OC(C)(C)C)C(=O)NC(C)C(=O)NC(Cc2ccccc2)C(=O)NCC(N)=O)cc1` (stereo not drawn) (Boc-Y(Pentanoyl)AFG-NH2; configuration not given here), the GI50 is 23.3 µM (inactive) in assay [1]; 46.3 µM (inactive) in assay [2]; > 100 µM (inactive) in assay [3]; 21.9 µM (inactive) in assay [4]; 17.3 µM (inactive) in [5]; 32.3 µM (inactive) in [6]. Moreover, the GI50 in assay [7] was > 100 µM (inactive); in assay [8], > 100 µM (inactive); in assay [9], 19.6 µM (inactive); in assay [10], 27.7 µM (inactive); in assay [11], above 100 µM; in [12], 20 µM (inactive). The GI50 in [13] is 20.5 µM (inactive); in assay [14] it was 20 µM (inactive); in [16], 31.6 µM (inactive); in assay [17] it was 25.9 µM (inactive); in assay [18], 44.8 µM (inactive); in [19], 26.4 µM (inactive).

On to `COc1cc(/C=N\N(C)C)cc(/C=N/N(C)C)c1O`, for which the GI50 in [1] is 30.6 µM (inactive); in assay [3] it was 21.3 µM (inactive); in assay [5], 39.3 µM (inactive); in assay [6], 14.4 µM (inactive); in assay [7], > 100 µM (inactive); in [8] it was 68.7 µM (inactive). Besides, the GI50 is 17.1 µM (inactive) in assay [9]; 28.6 µM (inactive) in assay [10]; 88.1 µM in [11]; 25.9 µM (inactive) in [12]; > 100 µM (inactive) in assay [13]; 25.8 µM (inactive) in assay [14]. For the same compound, the GI50 was 12.5 µM (inactive) in [15]; 10.8 µM (inactive) in assay [16]; 25.9 µM (inactive) in assay [17]; 46.7 µM (inactive) in assay [18]; 9.71 µM (inactive) in assay [19].

For `Oc1ccc(Cl)cc1CN1CCN(Cc2cc(Cl)ccc2O)C1`, the GI50 is 2.86 µM (inactive) in assay [1]; 1.39 µM (inactive) in [2]; 0.465 µM (active) in assay [3]; 5.09 µM (inactive) in assay [4]; 0.617 µM (active) in assay [5]; 1.11 µM (active) in assay [6]. For the same compound, the GI50 is 1.75 µM (inactive) in [7]; 1.92 µM (inactive) in assay [8]; 1.45 µM (inactive) in [9]; 1.86 µM (inactive) in [10]; 1.33 µM (inactive) in assay [12]; 10.5 µM (inactive) in [13]. The GI50 in [14] is 0.403 µM (active); in assay [16], 2.17 µM (inactive); in assay [17], 1.79 µM (inactive); in assay [18] it was 0.547 µM (active); in assay [20] it was 1.57 µM (inactive); in assay [19], 2.02 µM (inactive).

In the case of `O=C(/C=C/c1ccc(O)c(O)c1)OCC(OC(=O)/C=C/c1ccc(O)c(O)c1)C(=O)O` (stereo not drawn), the GI50 in assay [1] is > 100 µM (inactive); in assay [2] it was > 100 µM (inactive); in assay [3], > 100 µM (inactive); in [4], > 100 µM (inactive); in [5], 70.5 µM (inactive); in assay [6], > 100 µM (inactive). Further, the GI50 in assay [7] was > 100 µM (inactive); in assay [8], > 100 µM (inactive); in assay [9], > 100 µM (inactive); in [10] it was > 100 µM (inactive); in [11], 47.6 µM; in assay [12], > 100 µM (inactive). Further, the GI50 was > 100 µM (inactive) in [13]; > 100 µM (inactive) in [14]; 21.3 µM (inactive) in [15]; > 100 µM (inactive) in assay [17]; 50.8 µM (inactive) in assay [18]; > 100 µM (inactive) in assay [20].

`CC(=O)Nc1ncc2c(n1)-c1ccccc1OC2`: the GI50 is > 100 µM (inactive) in assay [1]; 54.3 µM (inactive) in [3]; > 100 µM (inactive) in assay [4]; > 100 µM (inactive) in [6]; > 100 µM (inactive) in [7]; > 100 µM (inactive) in assay [8]. The GI50 was > 100 µM (inactive) in [9]; > 100 µM (inactive) in assay [10]; above 100 µM in assay [11]; > 100 µM (inactive) in assay [12]; > 100 µM (inactive) in assay [13]; > 100 µM (inactive) in assay [14]. Moreover, the GI50 in assay [15], in [17], in assay [18], in assay [20] and in [19] was > 100 µM (inactive) in each case.

Consider `CCOC(CN(C)C(=O)OCC(Cl)(Cl)Cl)OCC`, for which the GI50 is > 100 µM (inactive) in assay [1]; 39.9 µM (inactive) in assay [2]; 99.1 µM (inactive) in [3]; > 100 µM (inactive) in [4]; > 100 µM (inactive) in assay [5]; > 100 µM (inactive) in assay [6]. In addition, the GI50 is > 100 µM (inactive) in [7]; > 100 µM (inactive) in assay [8]; 27.7 µM (inactive) in [9]; 33.4 µM (inactive) in assay [10]; 77.8 µM in [11]; > 100 µM (inactive) in assay [12]. The GI50 in assay [13] is 67.9 µM (inactive); in [14], 25.5 µM (inactive); in [15] it was 34.2 µM (inactive); in [17], 81.3 µM (inactive); in assay [18], > 100 µM (inactive); in assay [20], > 100 µM (inactive). For the same compound, the GI50 in [19] was 21.6 µM (inactive).

For `ClC(Cl)(Cl)C1CCOC1n1nnc2ccccc21` (stereo not drawn), the GI50 was 24.1 µM (inactive) in assay [2]; > 100 µM (inactive) in assay [4]; > 100 µM (inactive) in [5]; > 100 µM (inactive) in assay [6]; 63 µM (inactive) in assay [7]; > 100 µM (inactive) in [8]. The GI50 in [9], in assay [10], in assay [12], in assay [13], in assay [14] and in assay [16] was > 100 µM (inactive) in each case. Moreover, the GI50 in [17] was > 100 µM (inactive); in [20], > 100 µM (inactive); in [19] it was 11.9 µM (inactive).

`Nc1ccc(Oc2ccc(C34CC5CC(C3)CC(c3ccc(Oc6ccc(N)cc6C(F)(F)F)cc3)(C5)C4)cc2)c(C(F)(F)F)c1`: the GI50 was 22.5 µM (inactive) in assay [1]; 44 µM (inactive) in assay [2]; 32.9 µM (inactive) in [3]; 27 µM (inactive) in assay [4]; 18.2 µM (inactive) in assay [5]; 31.1 µM (inactive) in assay [6]. The GI50 in [7] is 19.1 µM (inactive); in [8], 35.2 µM (inactive); in [9] it was 19.1 µM (inactive); in assay [10] it was 18.7 µM (inactive); in assay [11], 31.8 µM; in assay [12] it was 24.2 µM (inactive). The GI50 was 13.4 µM (inactive) in assay [13]; 15.2 µM (inactive) in [14]; 22.2 µM (inactive) in assay [16]; 36.6 µM (inactive) in assay [17]; 36.3 µM (inactive) in assay [18]; 15.5 µM (inactive) in [20]. For the same compound, the GI50 in assay [19] is 24.2 µM (inactive).

For the compound `[N-]=[N+]=C1CNC(=O)NC1=O`, the GI50 is > 100 µM (inactive) in [1]; > 100 µM (inactive) in assay [2]; 69.3 µM (inactive) in assay [3]; > 100 µM (inactive) in assay [4]; > 100 µM (inactive) in assay [5]; > 100 µM (inactive) in assay [6]. Besides, the GI50 in assay [7] is > 100 µM (inactive); in assay [8], > 100 µM (inactive); in assay [9], > 100 µM (inactive); in assay [10] it was > 100 µM (inactive); in [11] it was above 100 µM; in assay [12], 95.7 µM (inactive). In addition, the GI50 in assay [13], in [14], in assay [16], in [17], in [18] and in assay [20] was > 100 µM (inactive) in each case. In [19], the GI50 is 34 µM (inactive).
